According to patent US20130236610A1, “COMPOSITIONS AND METHODS FOR INHIBITING POTATO PATHOGENS” (UNIVERSITY OF IDAHO, priority 2010, published 2013):

Columns and labels:
Type in all cases: cell-based
Colletotrichum coccodes [1] = assay: Pure volatile in 1L jars above plates containing the pathogens, colony diameter (Example 2); details: 2.5 μL/L volatile, 1L jar, 23 degree C
Method: (§1) […] were chosen as prototype volatiles to investigate the use of plant volatiles for the control of potato blemish pathogens. Three main potato blemish pathogens were used in the study: Erwinia carotovora, Colletotrichum coccodes and Helminthosporium solani.
(§2) 1L jars were used. Pure volatile (2.5-10 μt/L) was inserted into the jars onto the side of the jar above 6cm plates containing the pathogens. Controls and treatments were incubated at 23 degree C. until the control filled the plate. Diameter of the colony (mm) from control and treatments were evaluated daily using calipers.

Helminthosporium solani [2] = assay: as above; details: 2.5 μL/L volatile, 1L jar, 23 degree C
Method: as §1, §2

Erwinia carotovora [3] = assay: as above; details: 2.5 μL/L volatile, 1L jar, 23 degree C
Method: as §1, §2

Erwinia carotovora [4] = assay: Volatile exposure of pathogen cultures on PDA in sealed mason jars, radial growth (Example 1); details: pure volatile, 7 days at 23° C
Colletotrichum coccodes [5] = assay: as above; details: pure volatile, 7 days at 23° C
Method: (§3) In this study, acetaldehyde and 2E-hexenal were chosen as prototype volatiles in order to investigate the use of plant volatiles for the control of potato blemish pathogens in fresh-pack potato packaging. The two main potato blemish disease pathogens, Colletotrichum coccodes (black dot) and Helminthosporium solani (silver scurf) were used in the study. Cultures of the two pathogens, grown on PDA, were exposed to the pure volatiles in sealed mason jars for 7 days at 23° C. Radial fungal growth and the concentration of the volatile were measured daily and the concentration required to inhibit fungal growth was determined. […] 2E-hexenal could be used to control these and other pathogens and extend the storability and shelf-life of potatoes.

Helminthosporium solani [6] = assay: as above; details: pure volatile, 7 days at 23° C
Method: as §3

Measured: inhibition of pathogen growth

CCC/C=C/C=O [2E-Hexanal]
nearly complete inhibition: Colletotrichum coccodes [1] | Helminthosporium solani [2] | Erwinia carotovora [3]

CCC/C=C/C=O [2E-hexenal]
nearly complete inhibition: Erwinia carotovora [4] | Colletotrichum coccodes [5] | Helminthosporium solani [6]
